PMC2783557 (Brain, behavior, and immunity, 2009)

Legend:
[1] = test system: Tg2576 mice; conditions: chronic treatment from 8-15 months of age, ref Sheng et al., 2003; cited from earlier work
[2] = test system: Male CD-1 mice; assay: Brain uptake; format: in vivo, mouse; conditions: indomethacin 20 mg/kg ip 30 min before LPS 3 mg/kg; n = 6-8/group

For COc1ccc2c(c1)c(CC(=O)O)c(C)n2C(=O)c1ccc(Cl)cc1 [Indomethacin], the “levels of soluble Aβ40 and Aβ42 in the hippocampus and cortex” value [1] is listed as “significantly reduce” and the “effect of LPS on brain uptake (influx) of I-Aβ” value [2] is listed as “did not reverse”.
